# US20250195521A1 (Revolution Medicines, Inc., priority 2020, published 2025)
# pIC50: −log10 of the molar value. Several values for one entry are separate records, joined by “and”; a condition that tells them apart may be missing. Equal entries are not always repeated. Where two headings read alike, the source gives them in different places.
# Legend:
# [1] = molecular target: KRAS G13D (Homo sapiens (Human), UniProt P01116+P62937, G13D); test: Ras-Raf disruption/FRET/MOA assay (BRAF RBD, Cyclophilin A); format: biochemical; settings: read-out: KRAS G13D FRET data IC50
# Outline: (§1)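 TR-FRET readout: anti-His Eu-W1024 (10 nM) and anti-GST allophycocyanin (50 nM) added after 3 h, 25° C compound incubation, then 1.5 h more. Decrease in FRET ratio versus DMSO wells marks Ras:RAF disruption; IC50 reported.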
# [2] = molecular target: KRAS G12C (Homo sapiens (Human), UniProt P01116+P62937, G12C); test: as above; format: biochemical; settings: read-out: KRAS G12C FRET IC50
# Outline: as §1
# [3] = molecular target: KRAS G12S (Homo sapiens (Human), UniProt P01116+P62937, G12S); test: as above; format: biochemical; settings: read-out: KRAS G12S FRET IC50
# Outline: as §1
# [4] = molecular target: KRAS WT (Homo sapiens (Human), UniProt P01116+P62937); test: as above; format: biochemical; settings: read-out: KRAS WT FRET data IC50
# Outline: as §1
# [5] = molecular target: KRAS G12D (Homo sapiens (Human), UniProt P01116+P62937, G12D); test: as above; format: biochemical; settings: read-out: KRAS G12D FRET IC50
# Outline: as §1
# [6] = molecular target: NRAS G12C (Homo sapiens (Human), UniProt P01111+P62937, G12C); test: as above; format: biochemical; settings: read-out: NRAS G12C FRET data IC50
# Outline: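 TR-FRET read after 1.5 h with 10 nM anti-His Eu-W1024 and 50 nM anti-GST APC, following 3 h at 25 °C of GMPPNP-loaded His6-Ras (12.5 nM), GST-BRAF RBD (50 nM) and Cyclophilin A (25 μM) with compound from 30 μM final, 10 points, 3-fold. IC50 reported; pH 7.3 HEPES, 100 mM NaCl.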
# [7] = molecular target: KRAS G12V (Homo sapiens (Human), UniProt P01116+P62937, G12V); test: as above; format: biochemical; settings: read-out: KRAS G12V FRET IC50
# Outline: as §1
# [8] = molecular target: KRAS G13C (Homo sapiens (Human), UniProt P01116+P62937, G13C); test: as above; format: biochemical; settings: read-out: KRAS G13C FRET IC50
# Outline: as §1
# [9] = system: NCI-H358 (K-Ras G12C); test: CellTiter-Glo cell viability assay, NCI-H358; format: cell-based, human; settings: 5-day treatment, read-out: H358 Cell Viability assay data (K-Ras G12C, IC50)
# Outline: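 Viability read-out was luminescent (CellTiter-Glo) on day 5 of compound exposure in K-Ras G12C NCI-H358 cells. Values were expressed as percent of mean DMSO signal and fitted with a four-parameter logistic curve.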
# Chain of KRAS G13C (P01116 other isoform, or with tags, fused parts or gaps G13C): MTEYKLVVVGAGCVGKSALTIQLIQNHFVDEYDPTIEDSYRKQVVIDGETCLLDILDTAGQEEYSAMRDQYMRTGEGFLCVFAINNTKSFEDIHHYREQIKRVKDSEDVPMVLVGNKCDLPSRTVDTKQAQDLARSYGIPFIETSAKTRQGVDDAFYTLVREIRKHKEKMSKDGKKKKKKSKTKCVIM
# Chain of KRAS G13C (P62937 whole entry): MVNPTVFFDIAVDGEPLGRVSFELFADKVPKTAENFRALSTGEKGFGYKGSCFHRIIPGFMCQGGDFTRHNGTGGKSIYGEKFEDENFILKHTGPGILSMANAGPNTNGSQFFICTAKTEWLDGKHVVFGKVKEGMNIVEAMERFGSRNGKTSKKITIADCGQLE
# Chain of KRAS G12C (P01116-2 other isoform, or with tags, fused parts or gaps G12C): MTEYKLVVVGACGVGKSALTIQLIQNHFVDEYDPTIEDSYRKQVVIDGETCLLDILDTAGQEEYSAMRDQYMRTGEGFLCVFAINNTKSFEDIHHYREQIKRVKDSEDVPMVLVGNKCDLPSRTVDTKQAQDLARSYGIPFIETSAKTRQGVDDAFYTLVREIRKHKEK
# Chain of KRAS G12C (P62937 whole entry): as the sequence (P62937 whole entry) above
# Chain of KRAS G12V (P01116 other isoform, or with tags, fused parts or gaps G12V): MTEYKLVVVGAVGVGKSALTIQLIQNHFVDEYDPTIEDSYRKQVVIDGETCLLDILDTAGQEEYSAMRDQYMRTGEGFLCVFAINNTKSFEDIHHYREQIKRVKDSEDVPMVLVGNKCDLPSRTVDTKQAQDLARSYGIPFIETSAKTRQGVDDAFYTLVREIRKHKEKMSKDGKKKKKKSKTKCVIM
# Chain of KRAS G12V (P62937 whole entry): as the sequence (P62937 whole entry) above
# Chain of KRAS WT (P01116 other isoform, or with tags, fused parts or gaps): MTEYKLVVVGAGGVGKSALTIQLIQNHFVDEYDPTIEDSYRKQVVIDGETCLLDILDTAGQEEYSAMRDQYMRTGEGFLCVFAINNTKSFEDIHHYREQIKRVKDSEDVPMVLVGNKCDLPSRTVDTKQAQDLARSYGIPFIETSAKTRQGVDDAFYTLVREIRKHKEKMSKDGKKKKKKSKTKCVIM
# Chain of KRAS WT (P62937 whole entry): as the sequence (P62937 whole entry) above
# Chain of KRAS G12D (P01116 other isoform, or with tags, fused parts or gaps G12D): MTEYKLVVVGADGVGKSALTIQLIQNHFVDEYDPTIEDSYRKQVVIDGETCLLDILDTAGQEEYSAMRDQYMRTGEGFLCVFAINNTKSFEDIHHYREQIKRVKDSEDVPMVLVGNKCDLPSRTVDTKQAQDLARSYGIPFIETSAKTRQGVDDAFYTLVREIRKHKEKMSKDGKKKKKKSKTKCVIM
# Chain of KRAS G12D (P62937 whole entry): as the sequence (P62937 whole entry) above
# Chain of NRAS G12C (P01111 whole entry G12C): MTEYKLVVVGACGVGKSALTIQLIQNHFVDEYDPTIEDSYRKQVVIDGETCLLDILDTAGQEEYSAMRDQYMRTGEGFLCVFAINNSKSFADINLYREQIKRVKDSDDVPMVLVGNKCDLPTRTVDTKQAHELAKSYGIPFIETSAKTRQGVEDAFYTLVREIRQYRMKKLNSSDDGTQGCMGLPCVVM
# Chain of NRAS G12C (P62937 whole entry): as the sequence (P62937 whole entry) above
# Chain of KRAS G13D (P01116 other isoform, or with tags, fused parts or gaps G13D): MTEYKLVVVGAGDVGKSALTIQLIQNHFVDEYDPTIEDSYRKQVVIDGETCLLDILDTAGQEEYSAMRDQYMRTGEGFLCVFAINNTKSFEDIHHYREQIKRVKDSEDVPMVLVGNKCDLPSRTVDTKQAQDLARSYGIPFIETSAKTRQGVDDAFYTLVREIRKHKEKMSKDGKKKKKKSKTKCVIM
# Chain of KRAS G13D (P62937 whole entry): as the sequence (P62937 whole entry) above
# Chain of KRAS G12S (P01116 other isoform, or with tags, fused parts or gaps G12S): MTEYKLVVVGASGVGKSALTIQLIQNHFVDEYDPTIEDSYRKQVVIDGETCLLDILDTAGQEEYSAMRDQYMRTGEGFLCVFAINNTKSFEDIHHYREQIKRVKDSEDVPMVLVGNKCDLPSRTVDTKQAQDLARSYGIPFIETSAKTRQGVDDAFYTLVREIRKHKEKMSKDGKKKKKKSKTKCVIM
# Chain of KRAS G12S (P62937 whole entry): as the sequence (P62937 whole entry) above
pIC50 [1],pIC50 [2],pIC50 [3],pIC50 [4],pIC50 [5],pIC50 [6],pIC50 [7],pIC50 [8],"pIC50 ([9]; Homo sapiens, NCI-H358, 120 h)",SMILES,pIC50 [9]
6.00 to 7.00,7.00 to 8.00,7.00 to 8.00,6.00 to 7.00,6.00 to 7.00,7.00 to 8.00,7.00 to 8.00,6.00 to 7.00,7.00 to 8.00,CCn1c(-c2cccnc2[C@H](C)OC)c2c3cc(ccc31)-c1cc(O)cc(c1)C[C@H](NC(=O)[C@H](C(C)C)N(C)C(=O)[C@H]1CCN(C(C)=O)C1)C(=O)N1CCC[C@H](N1)C(=O)OCC(C)(C)C2 [Compound A5],–
5.00 to 6.00,6.00 to 7.00,5.00 to 6.00,5.00 to 6.00,5.00 to 6.00,6.00 to 7.00,5.00 to 6.00,5.00 to 6.00,7.00 to 8.00,CCn1c(-c2cccnc2[C@H](C)OC)c2c3cc(ccc31)-c1csc(n1)C[C@H](NC(=O)[C@H](C(C)C)N(C)C(=O)[C@H]1CCN(C(=O)CN(C)C)C1)C(=O)N1CCC[C@H](N1)C(=O)OCC(C)(C)C2 [Compound A97],–
6.00 to 7.00,5.00 to 6.00,6.00 to 7.00,5.00 to 6.00,5.00 to 6.00,5.00 to 6.00,< 5.00,6.00 to 7.00,–,CCn1c(-c2cccnc2[C@H](C)OC)c2c3cc(ccc31)-c1cccc(c1)C[C@H](NC(=O)[C@H](C(C)C)N(C)C(=O)[C@H]1CCNC1)C(=O)N1CCC[C@H](N1)C(=O)OCC(C)(C)C2 [Compound A119],–
5.00 to 6.00,5.00 to 6.00,5.00 to 6.00,5.00 to 6.00,< 5.00,5.00 to 6.00,5.00 to 6.00,6.00 to 7.00,6.00 to 7.00,CCn1c(-c2cccnc2[C@H](C)OC)c2c3cc(ccc31)-c1cc(O)cc(c1)C[C@H](NC(=O)C(=C(C)C)N(C)C(C)=O)C(=O)N1CCC[C@H](N1)C(=O)OCC(C)(C)C2 [Compound A142],–
5.00 to 6.00,5.00 to 6.00,5.00 to 6.00,5.00 to 6.00,5.00 to 6.00,5.00 to 6.00,< 5.00,6.00 to 7.00,> 8.00,CCn1c(-c2cccnc2[C@H](C)OC)c2c3cc(ccc31)-c1cc(O)cc(c1)C[C@H](NC(=O)[C@H](C(C)C)N(C)C(=O)[C@H]1CCN(C3CC3)C1)C(=O)N1CCC[C@H](N1)C(=O)OCC(C)(C)C2 [Compound A175],–
–,5.00 to 6.00,5.00 to 6.00,5.00 to 6.00,< 5.00,5.00 to 6.00,5.00 to 6.00,5.00 to 6.00,> 8.00,CCn1c(-c2cccnc2[C@H](C)OC)c2c3cc(ccc31)-c1csc(n1)C[C@H](NC(=O)[C@H](C(C)C)N(C)C(=O)C1COC1)C(=O)N1CCC[C@H](N1)C(=O)OCC(C)(C)C2 [Compound A245],–
5.00 to 6.00,5.00 to 6.00,5.00 to 6.00,5.00 to 6.00,< 5.00,5.00 to 6.00,5.00 to 6.00,5.00 to 6.00,> 8.00,CCn1c(-c2cccnc2[C@H](C)OC)c2c3cc(ccc31)-c1cccc(c1)C[C@H](NC(=O)[C@H](C(C)C)N(C)C(=O)C1COC1)C(=O)N1CCC[C@H](N1)C(=O)OCC(C)(C)C2 [Compound A246],–
6.00 to 7.00 and 7.00 to 8.00,7.00 to 8.00,7.00 to 8.00,7.00 to 8.00,6.00 to 7.00,7.00 to 8.00,6.00 to 7.00 and 7.00 to 8.00,7.00 to 8.00,7.00 to 8.00,CCn1c(-c2cccnc2[C@H](C)OC)c2c3cc(ccc31)-c1cc(O)cc(c1)C[C@H](NC(=O)[C@H](C(C)C)N(C)C(=O)C1CC(=O)N(C3CC3)C1)C(=O)N1CCC[C@H](N1)C(=O)OCC(C)(C)C2 (stereo partly drawn) [Compound A252],–
7.00 to 8.00,7.00 to 8.00,6.00 to 7.00,6.00 to 7.00,6.00 to 7.00,6.00 to 7.00,6.00 to 7.00,7.00 to 8.00,> 8.00,CCn1c(-c2cnccc2COC)c2c3cc(ccc31)-c1cc(O)cc(c1)C[C@H](NC(=O)[C@H](C(C)C)N(C)C(=O)N1CCNCC1)C(=O)N1CCC[C@H](N1)C(=O)OCC(C)(C)C2 [Compound A255],–
5.00 to 6.00,6.00 to 7.00,5.00 to 6.00,6.00 to 7.00,5.00 to 6.00,6.00 to 7.00,5.00 to 6.00,5.00 to 6.00,> 8.00,CCn1c(-c2cccnc2[C@H](C)OC)c2c3cc(ccc31)-c1csc(n1)C[C@H](NC(=O)[C@H](C(C)C)N(C)C(=O)N1C[C@@H](C)N(C)C[C@@H]1C)C(=O)N1CCC[C@H](N1)C(=O)OCC(C)(C)C2 [Compound A292],–
5.00 to 6.00,5.00 to 6.00,5.00 to 6.00,5.00 to 6.00,< 5.00,5.00 to 6.00,5.00 to 6.00,5.00 to 6.00,> 8.00,CCn1c(-c2cccnc2[C@H](C)OC)c2c3cc(ccc31)-c1csc(n1)C[C@H](NC(=O)[C@H](C(C)C)N1CCCN(C)C1=O)C(=O)N1CCC[C@H](N1)C(=O)OCC(C)(C)C2 [Compound A317],–
6.00 to 7.00,7.00 to 8.00,7.00 to 8.00,7.00 to 8.00,6.00 to 7.00,7.00 to 8.00,6.00 to 7.00,7.00 to 8.00,> 8.00,CCN(CC)C(=O)N(C)[C@H](C(=O)N[C@H]1Cc2nc(cs2)-c2ccc3c(c2)c(c(-c2cccnc2[C@H](C)OC)n3CC)CC(C)(C)COC(=O)[C@@H]2CCCN(N2)C1=O)C(C)C [Compound A351],–
7.00 to 8.00,7.00 to 8.00,7.00 to 8.00,7.00 to 8.00,7.00 to 8.00,7.00 to 8.00,6.00 to 7.00,7.00 to 8.00,> 8.00,CCn1c(-c2cccnc2[C@H](C)OC)c2c3cc(ccc31)-c1cc(O)cc(c1)C[C@H](NC(=O)[C@H](C(C)C)N(C)C(=O)[C@@H]1CCCC[C@@H]1N)C(=O)N1CCC[C@H](N1)C(=O)OCC(C)(C)C2 [Compound A395],–
6.00 to 7.00,6.00 to 7.00,6.00 to 7.00,6.00 to 7.00,5.00 to 6.00,6.00 to 7.00,6.00 to 7.00,6.00 to 7.00,> 8.00,CCn1c(-c2cccnc2[C@H](C)OC)c2c3cc(ccc31)-c1csc(n1)C[C@H](NC(=O)[C@H](C(C)C)N(C)C(=O)N1CCOC[C@@H]1C)C(=O)N1CCC[C@H](N1)C(=O)OCC(C)(C)C2 [Compound A403],–
–,7.00 to 8.00,7.00 to 8.00,–,6.00 to 7.00,7.00 to 8.00,6.00 to 7.00,6.00 to 7.00,> 8.00,CCn1c(-c2cccnc2[C@H](C)OC)c2c3cc(ccc31)-c1cc(O)cc(c1)C[C@H](NC(=O)[C@H](C(C)C)N(C)C(=O)C13CCC(CO1)C3)C(=O)N1CCC[C@H](N1)C(=O)OCC(C)(C)C2 [Compound A411],–

SMILES,pIC50 [1],pIC50 [2],pIC50 [3],pIC50 [4],pIC50 [5],pIC50 [6],pIC50 [7],pIC50 [8],"pIC50 ([9]; Homo sapiens, NCI-H358, 120 h)",pIC50 [9]
CCn1c(-c2cccnc2[C@H](C)OC)c2c3cc(ccc31)-c1cc(cc3nc[nH]c13)C[C@H](NC(=O)[C@H](C(C)C)N(C)C(C)=O)C(=O)N1CCC[C@H](N1)C(=O)OCC(C)(C)C2 [Compound A153],< 5.00,–,< 5.00,< 5.00,< 5.00,< 5.00,< 5.00,< 5.00,6.00 to 7.00,–
CCn1c(-c2cccnc2[C@H](C)OC)c2c3cc(ccc31)-c1cc(cc(S(C)(=O)=O)c1)C[C@H](NC(=O)[C@H](C(C)C)N(C)C(C)=O)C(=O)N1CCC[C@H](N1)C(=O)OCC(C)(C)C2 [Compound A154],< 5.00,–,< 5.00,< 5.00,< 5.00,< 5.00,< 5.00,< 5.00,7.00 to 8.00,–
"CCn1c(-c2cc(N3CCN(C)CC3)cnc2[C@H](C)OC)c2c3cc(ccc31)-c1nc(co1)C[C@H](NC(=O)[C@H]1[C@H](C)[C@@H]1C)C(=O)N1CCC[C@H](N1)C(=O)OCC(C)(C)C2 [Compound A391, (1r,2R,3S)—N-((6^3S,4S,Z)-1^1-ethyl-1^2-(2-((S)-1-methoxyethyl)-5-(4-methylpiperazin-1-yl)pyridin-3-yl)-10,10-dimethyl-5,7-dioxo-6^1,6^2,6^3,6^4,6^5,6^6-hexahydro-1^1H-8-oxa-2 (2,4)-oxazola-1 (5,3)-indola-6 (1,3)-pyridazinacycloundecaphane-4-yl)-2,3-dimethylcyclopropane-1-carboxamide]",–,7.00 to 8.00,7.00 to 8.00,–,7.00 to 8.00,–,7.00 to 8.00,7.00 to 8.00,–,> 8.00
